Experimental data taken from US12583851B2, “Heteroaryl-substituted pyrazine derivatives as pesticides” (Elanco Animal Health GmbH, priority 2019, dated 2026).

What was measured:
Type in all cases: in vivo
[1] = tested on: larvae of the banded cucumber beetle (Diabrotica balteata); assay: Diabrotica balteata spray test; conditions: 168 h, after 7 days, read-out: efficacy (seedling growth); for pest or weed control at 6.4 µg/disc, 20 g/ha: 20 g/ha (=6.4 μg/well); for pest or weed control at 32 µg/disc, 100 g/ha: 100 g/ha (=32 μg/well)
Description: Diabrotica balteata—Spray Test
Solvent: 78.0 parts by weight of acetone • • 1.5 parts by weight of dimethylformamide
(§1) Emulsifier: alkylarylpolyglycol ether
(§2) To produce a suitable preparation of active compound, 1 part by weight of active compound is mixed with the stated amount of solvent, and the concentrate is diluted with water, containing an emulsifier concentration of 1000 ppm, to the desired concentration. Further test concentrations are prepared by dilution with emulsifier containing water.
Soaked wheat seeds (Triticum aestivum) are placed in a multiple well plate filled with agar and some water and are incubated for 1 day to germinate (5 seeds per well). The germinated wheat seeds are sprayed with a test solution containing the desired concentration of the active ingredient. Afterwards each unit is infected with 10-20 larvae of the banded cucumber beetle (Diabrotica balteata).
After 7 days efficacy in % is determined. 100% means all the seedlings have grown up like in the untreated, uninfected control; 0% means none of the seedlings have grown.

[2] = tested on: Rhipicephalus (Boophilus) microplus larvae (strain Parkhurst, resistant against synthetic pyrethroids); assay: Rhipicephalus (Boophilus) microplus in-vitro contact test, larval cattle tick; conditions: after 48 hours, read-out: efficacy (larvae dead or moribund); for pest or weed control at 5 µg/cm2, 500 g/ha: 5 μg/cm^2 (=500 g/ha); for pest or weed control at 1 µg/cm2, 100 g/ha: 1 μg/cm^2 (=100 g/ha)
Description: Rhipicephalus (Boophilus) microplus—In-Vitro Contact Tests Larval Cattle Tick (Strain Parkhurst, Resistant Against Synthetic Pyrethroids)
9 mg compound is solved in 1 mL acetone and diluted with acetone to the desired concentration. […] the test solution is filled in 25 mL glass test tubes and homogeneously distributed on the inner walls by rotation and tilting on a shaking device (2 h at 30 rpm). With a compound concentration of 900 ppm, an inner surface of 44.7 cm^2 and a homogeneous distribution, a dose of 5 μg/cm^2 is achieved.
After the solvent has evaporated, each test tube is filled with 20-50 cattle tick larvae (Rhipicephalus microplus), closed with a perforated lid and incubated in a horizontal position at 85% relative humidity and 27° C. in an incubator. After 48 hours efficacy is determined. The larvae are patted on the ground of the tubes and negative geotactic behaviour is recorded.
An efficacy of 100% means all larvae are dead or moribund; 0% means no larvae are dead or moribund.

[3] = tested on: fall armyworm larvae (Spodoptera frugiperda); assay: Spodoptera frugiperda spray test; conditions: 168 h, maize leaf sections, after 7 days
Description: Spodoptera fruaiperda—Spray Test
Solvent: 78.0 parts by weight acetone • 1.5 parts by weight dimethylformamide
as §1
as §2, with “solvents” for “solvent,”, “and” for “and the concentrate”
Maize (Zea mays) leaf sections are sprayed with a preparation of the active ingredient of the desired concentration. Once dry, the leaf sections are infested with fall armyworm larvae (Spodoptera frugiperda).
After 7 days mortality in % is determined. 100% means all caterpillars have been killed and 0% means none of the caterpillars have been killed.

For `CC(NC(=O)c1cc(Cl)cc(OC(F)(F)F)c1)c1nccnc1-n1cc(C#N)cn1` (racemic) [Example I-104, (rac)-3-Chloro-N-{1-[3-(4-cyano-1H-pyrazol-1-yl)pyrazin-2-yl]ethyl}-5-(trifluoromethoxy)benzamide], the pest or weed control at 6.4 µg/disc, 20 g/ha [1] was 100% and the pest or weed control at 32 µg/disc, 100 g/ha [1] was 100%.

For `COc1ccc(-c2nccnc2C(C)NC(=O)c2cc(C(F)(F)F)cc(C(F)(F)F)c2)nc1` (stereo not shown) [Example I-26], the pest or weed control at 5 µg/cm2, 500 g/ha [2] was 90%, the pest or weed control at 6.4 µg/disc, 20 g/ha [1] was 100% and the pest or weed control at 32 µg/disc, 100 g/ha [1] was 100%.

For `CC(NC(=O)c1cc(C(F)(F)F)cc(C(F)(F)F)c1)c1nccnc1-c1ccc(C(=O)N2CCCC2)cn1` (racemic) [Example I-37, (rac)-N-[1-{3-[5-(Pyrrolidine-1-carbonyl)pyridin-2-yl]pyrazin-2-yl}ethyl]-3,5-bis(trifluoromethyl)benzamide], the pest or weed control at 1 µg/cm2, 100 g/ha [2] was 100% and the pest or weed control at 5 µg/cm2, 500 g/ha [2] was 100%.

`CC(NC(=O)c1cc(C(F)(F)F)cc(C(F)(F)F)c1)c1nccnc1-c1ncc(C(=O)N2CCCC2)s1` (racemic) [Example I-71, (rac)-N-[1-{3-[5-(Pyrrolidine-1-carbonyl)-1,3-thiazol-2-yl]pyrazin-2-yl}ethyl]-3,5-bis(trifluoromethyl)benzamide] was tested, and the pest or weed control at 6.4 µg/disc, 20 g/ha [1] was 100% and the pest or weed control at 32 µg/disc, 100 g/ha [1] was 100%.

In the case of `CC(NC(=O)c1cc(C(F)(F)F)cc(C(F)(F)F)c1)c1nccnc1-n1cc(C(=O)N2CCCC2)cn1` (racemic) [Example I-91, N-[(rac)-1-{3-[4-(Pyrrolidine-1-carbonyl)-1H-pyrazol-1-yl]pyrazin-2-yl}ethyl]-3,5-bis(trifluoromethyl)benzamide], the pest or weed control at 1 µg/cm2, 100 g/ha [2] is reported as 100% and the pest or weed control at 5 µg/cm2, 500 g/ha [2] is reported as 100%.

In the case of `CC(NC(=O)c1cc(C(F)(F)F)cc(C(F)(F)F)c1)c1nccnc1-n1cc(Cl)cn1` (racemic) [Example I-96, N-{(rac)-1-[3-(4-Chloro-1H-pyrazol-1-yl)pyrazin-2-yl]ethyl}-3,5-bis(trifluoromethyl)benzamide], the pest or weed control at 6.4 µg/disc, 20 g/ha [1] is reported as 100% and the pest or weed control at 32 µg/disc, 100 g/ha [1] is reported as 100%.

Work on `CC(NC(=O)c1cc(Cl)cc(C#N)c1)c1nccnc1-c1ccc(C(F)(F)F)cn1` (racemic) [Example I-40, (rac)-3-Chloro-5-cyano-N-[1-{3-[5-(trifluoromethyl)pyridin-2-yl]pyrazin-2-yl}ethyl]benzamide] yielded a pest or weed control at 32 µg/disc, 100 g/ha [1] of 100%.

With `CCN(C)C(=O)c1cnc(-c2ncc(C)nc2[C@H](C)NC(=O)c2cc(C(F)(F)F)nc(C(F)(F)F)c2)s1` [Example I-159, (+)-N-[(1S)-1-(3-(5-[ethyl(methyl)carbamoyl]-1,3-thiazol-2-yl)-6-methylpyrazin-2-yl)ethyl]-2,6-bis(trifluoromethyl)pyridine-4-carboxamide] the mortality at 100 g/ha [3] was 100%.

`CC(NC(=O)c1cc(Cl)cc(C#N)c1)c1nccnc1-c1ccccn1` (stereo not shown) [Example I-18] gave a pest or weed control at 32 µg/disc, 100 g/ha [1] of 100%.

`CC(NC(=O)c1cc(Cl)cc(OC(F)(F)F)c1)c1nccnc1-c1ccc(C(F)(F)F)cn1` (racemic) [Example I-47, (rac)-3-Chloro-5-(trifluoromethoxy)-N-[1-{3-[5-(trifluoromethyl)pyridin-2-yl]pyrazin-2-yl}ethyl]benzamide] showed a mortality at 100 g/ha [3] of 100%.

Compound `CC(NC(=O)c1cc(Br)cc(OC(F)(F)F)c1)c1nccnc1-n1cc(Cl)cn1` (racemic) [Example I-97, (rac)-3-Bromo-N-{1-[3-(4-chloro-1H-pyrazol-1-yl)pyrazin-2-yl]ethyl}-5-(trifluoromethoxy)benzamide] has a pest or weed control at 32 µg/disc, 100 g/ha [1] of 100%.

In the case of `CCN(C)C(=O)c1cnc(-c2ncc(C)nc2C(C)NC(=O)c2cc(C(F)(F)F)nc(C(F)(F)F)c2)s1` (racemic) [Example I-151, (rac)-N-[1-(3-{5-[Ethyl(methyl)carbamoyl]-1,3-thiazol-2-yl)-6-methylpyrazin-2-yl)ethyl]-2,6-bis(trifluoromethyl)pyridine-4-carboxamide], the mortality at 100 g/ha [3] is reported as 100%.

Work on `CCN(C)C(=O)c1cnc(-c2nc(C)cnc2C(C)NC(=O)c2cc(C(F)(F)F)cc(C(F)(F)F)c2)s1` (stereo in doubt) [Example I-157, (+)-2-(3-{(1S)-1-[3,5-bis(trifluoromethyl)benzamido]ethyl}-6-methylpyrazin-2-yl)-N-ethyl-N-methyl-1,3-thiazole-5-carboxamide] yielded a mortality at 100 g/ha [3] of 100%.

`COc1ccc(-c2nccnc2C(C)NC(=O)c2cc(Cl)cc(C(F)(F)F)c2)nc1` (stereo not shown) [Example I-29] gave a pest or weed control at 5 µg/cm2, 500 g/ha [2] of 90%, a pest or weed control at 6.4 µg/disc, 20 g/ha [1] of 100% and a pest or weed control at 32 µg/disc, 100 g/ha [1] of 100%.

Work on `CC(NC(=O)c1cc(C(F)(F)F)cc(C(F)(F)F)c1)c1nccnc1-c1ncc(C(=O)N2CCC[Si](C)(C)C2)s1` (racemic) [Example I-70, (rac)-N-[1-{3-[5-(3,3-Dimethyl-1,3-azasilinane-1-carbonyl)-1,3-thiazol-2-yl]pyrazin-2-yl}ethyl]-3,5-bis(trifluoromethyl)benzamide] yielded a pest or weed control at 32 µg/disc, 100 g/ha [1] of 100%.

`Cc1cnc(C(C)NC(=O)c2cc(C(F)(F)F)cc(C(F)(F)F)c2)c(-c2ncc(C(=O)N3C[C@@H](C)O[C@@H](C)C3)s2)n1` (mixture of isomers) [Example I-126, (rac)-N-[1-(3-{5-[cis-2,6-Dimethylmorpholine-4-carbonyl]-1,3-thiazol-2-yl}-5-methylpyrazin-2-yl)ethyl]-3,5-bis(trifluoromethyl)benzamide] was tested, and the pest or weed control at 1 µg/cm2, 100 g/ha [2] was 100%, the pest or weed control at 5 µg/cm2, 500 g/ha [2] was 100% and the pest or weed control at 32 µg/disc, 100 g/ha [1] was 100%.

`CC(NC(=O)c1cncc(C(C)(C)C)c1)c1nccnc1-c1nccs1` (racemic) [Example I-6, (rac)-5-(tert-Butyl)-N-(1-(3-(thiazol-2-yl)pyrazin-2-yl)ethyl)nicotinamide] gave a pest or weed control at 1 µg/cm2, 100 g/ha [2] of 80% and a pest or weed control at 5 µg/cm2, 500 g/ha [2] of 80%.

Work on `CC(NC(=O)c1cc(Cl)cc(C#N)c1)c1nccnc1-n1cc(C#N)cn1` (racemic) [Example I-121, (rac)-3-Chloro-5-cyano-N-{1-[3-(4-cyano-1H-pyrazol-1-yl)pyrazin-2-yl]ethyl}benzamide] yielded a pest or weed control at 32 µg/disc, 100 g/ha [1] of 100%.

`CC(NC(=O)c1cc(Cl)cc(S(=O)(=O)C2CC2)c1)c1nccnc1-n1cc(C#N)cn1` (racemic) [Example I-101, (rac)-3-Chloro-N-{1-[3-(4-cyano-1H-pyrazol-1-yl)pyrazin-2-yl]ethyl}-5-(cyclopropanesulfonyl)benzamide] was tested, and the mortality at 100 g/ha [3] was 100%.

`Cc1cnc(-c2ncc(C(=O)N3C[C@@H](C)O[C@@H](C)C3)s2)c(C(C)NC(=O)c2cc(C(F)(F)F)cc(C(F)(F)F)c2)n1` (mixture of isomers) [Example I-127, (rac)-N-[1-(3-{5-[cis-2,6-dimethylmorpholine-4-carbonyl]-1,3-thiazol-2-yl}-6-methylpyrazin-2-yl)ethyl]-3,5-bis(trifluoromethyl)benzamide] was tested, and the pest or weed control at 1 µg/cm2, 100 g/ha [2] was 100% and the pest or weed control at 5 µg/cm2, 500 g/ha [2] was 100%.

In the case of `CC(NC(=O)c1cc(Cl)cc(C#N)c1)c1nccnc1-c1nccs1` (racemic) [Example I-57, (rac)-3-Chloro-5-cyano-N-{1-[3-(1,3-thiazol-2-yl)pyrazin-2-yl]ethyl}benzamide], the pest or weed control at 6.4 µg/disc, 20 g/ha [1] is reported as 80%.

Compound `CC(NC(=O)c1cc(Br)cc(I)c1)c1nccnc1-n1cc(C#N)cn1` (racemic) [Example I-112, (rac)-3-Bromo-N-{1-[3-(4-cyano-1H-pyrazol-1-yl)pyrazin-2-yl]ethyl}-5-iodobenzamide] has a pest or weed control at 32 µg/disc, 100 g/ha [1] of 100%.

For `CC(NC(=O)c1cc(Br)cc(OC(F)(F)F)c1)c1nccnc1-c1ccc(C(F)(F)F)cn1` (racemic) [Example I-44, (rac)-3-Bromo-5-(trifluoromethoxy)-N-[1-{3-[5-(trifluoromethyl)pyridin-2-yl]pyrazin-2-yl}ethyl]benzamide], the pest or weed control at 32 µg/disc, 100 g/ha [1] was 100%.

`CC(NC(=O)c1cc(Cl)cc(Br)c1)c1nccnc1-c1ccc(C(F)(F)F)cn1` (racemic) [Example I-43, (rac)-3-Bromo-5-chloro-N-[1-{3-[5-(trifluoromethyl)pyridin-2-yl]pyrazin-2-yl}ethyl]benzamide] was tested, and the pest or weed control at 32 µg/disc, 100 g/ha [1] was 80%.
